Experimental data from ChEMBL document CHEMBL1128141, “Chemical modification of ring c of himbacine: Discovery of a pharmacophoric element for M2-selectivity” (Bioorg Med Chem Lett, 1995).

Legend:
[1] = target: T1, Muscarinic acetylcholine receptor M2 (Rattus norvegicus, UniProt P10980); assay: Binding affinity against M2 receptor in rat brainstem cells using radioligand [3H]quinuclidinyl benzilate ([3H]QNB); format: cell-based, Brain
T1 sequence (P10980 whole entry): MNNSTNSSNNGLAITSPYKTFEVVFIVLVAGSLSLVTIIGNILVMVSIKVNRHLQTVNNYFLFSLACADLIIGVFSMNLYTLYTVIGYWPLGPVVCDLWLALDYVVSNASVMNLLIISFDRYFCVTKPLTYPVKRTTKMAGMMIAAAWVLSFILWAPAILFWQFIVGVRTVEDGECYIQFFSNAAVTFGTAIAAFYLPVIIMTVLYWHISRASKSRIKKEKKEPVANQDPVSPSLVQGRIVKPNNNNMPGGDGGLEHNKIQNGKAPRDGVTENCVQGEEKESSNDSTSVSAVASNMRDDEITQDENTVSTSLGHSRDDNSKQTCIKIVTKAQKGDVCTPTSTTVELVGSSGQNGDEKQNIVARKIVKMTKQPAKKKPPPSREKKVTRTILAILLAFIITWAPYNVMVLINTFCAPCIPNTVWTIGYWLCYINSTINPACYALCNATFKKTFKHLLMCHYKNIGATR

[2] = target: Muscarinic acetylcholine receptors; M1 & M2 (Homo sapiens) (UniProt P11229+P08172); assay: Ratio of binding affinities towards M2 receptor to M1 receptor; format: protein assay
[3] = target: T2, Muscarinic acetylcholine receptor M1 (Homo sapiens, UniProt P11229); assay: Binding affinity against M1 receptor expressed in CHO-K1 cells transfected with human muscarinic receptor sequence using radioligand [3H]quinuclidinyl benzilate ([3H]QNB); format: cell-based
T2 sequence (P11229 whole entry): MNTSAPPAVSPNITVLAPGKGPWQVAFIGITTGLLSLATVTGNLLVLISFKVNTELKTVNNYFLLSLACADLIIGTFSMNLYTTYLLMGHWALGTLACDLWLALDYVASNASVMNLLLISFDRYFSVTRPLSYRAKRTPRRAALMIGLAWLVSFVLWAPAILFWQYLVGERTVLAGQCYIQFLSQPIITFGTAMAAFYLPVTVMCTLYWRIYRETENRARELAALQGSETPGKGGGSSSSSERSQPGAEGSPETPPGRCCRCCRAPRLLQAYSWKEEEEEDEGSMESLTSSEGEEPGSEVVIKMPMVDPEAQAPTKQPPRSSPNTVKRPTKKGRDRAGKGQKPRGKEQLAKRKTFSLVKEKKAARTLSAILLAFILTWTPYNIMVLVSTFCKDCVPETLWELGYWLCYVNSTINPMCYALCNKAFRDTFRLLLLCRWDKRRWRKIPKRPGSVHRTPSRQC

Row | Structure (SMILES) | Kd [1] [nM] | Selectivity [2] | Kd [3] [nM]
1 | CC(=O)OC[C@H]1C[C@H]2CCCC[C@@H]2[C@@H](/C=C/[C@H]2CCC[C@H](C)N2C)[C@H]1[C@H](C)OC(C)=O | 249 | 2.4 | 605
2 | C[C@H](O)[C@H]1[C@@H](CO)C[C@H]2CCCC[C@@H]2[C@H]1/C=C/[C@H]1CCC[C@H](C)N1C | 293 | 1.7 | 494
3 | CC(=O)O[C@H]1O[C@@H](C)[C@@H]2[C@H](/C=C/[C@H]3CCC[C@H](C)N3C)[C@H]3CCCC[C@@H]3C[C@H]12 | 89 | 9.7 | 866
4 | C[C@@H]1OC(=O)[C@H]2C[C@H]3CCCC[C@@H]3[C@@H](/C=C/[C@H]3CCC[C@H](C)N3C)[C@@H]12 [HIMBACINE] | 10 | 14.8 | 148
5 | C[C@@H]1O[C@H](OC(=O)C(C)(C)C)[C@H]2C[C@H]3CCCC[C@@H]3[C@@H](/C=C/[C@H]3CCC[C@H](C)N3C)[C@H]21 | 464 | 5.4 | 2520
6 | C[C@@H]1OC[C@H]2C[C@H]3CCCC[C@@H]3[C@@H](/C=C/[C@H]3CCC[C@H](C)N3C)[C@H]21 | 353 | 0.5 | 167
7 | C[C@@H]1O[C@H](O)[C@H]2C[C@H]3CCCC[C@@H]3[C@@H](/C=C/[C@H]3CCC[C@H](C)N3C)[C@H]21 | 96 | 4.4 | 423
